Experimental data published in the supplement of paper PMC10307832.

Key:
Experiment in all cases: relative viability (nuclei count vs DMSO), 5 days (fraction); higher = more cells survive
CAL-12T = tested on: CAL-12T
Method in brief: (§1)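 Lung cancer cell lines in 1536-well plates were dosed by pin tool the day after seeding, either with one drug alone or with a fixed anchor-drug dose plus five library-drug doses (not always all listed) in √10 steps. After 5 days, cells were fixed and their nuclei stained in one step (final 0.05% Triton X-100, 1% formaldehyde, 1 ug/ml Hoechst), then counted on 4× images. Relative viability is the nuclei count in treated wells divided by that in vehicle wells. Values are medians of duplicate plates.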

EKVX = tested on: EKVX
Method in brief: as §1

H3255 = tested on: H3255
Method in brief: as §1

HCC-15 = tested on: HCC-15
Method in brief: as §1

HCC-827 = tested on: HCC-827
Method in brief: as §1

LCLC-97TM1 = tested on: LCLC-97TM1
Method in brief: as §1

NCI-H1355 = tested on: NCI-H1355
Method in brief: as §1

NCI-H1563 = tested on: NCI-H1563
Method in brief: as §1

NCI-H1650 = tested on: NCI-H1650
Method in brief: as §1

NCI-H1734 = tested on: NCI-H1734
Method in brief: as §1

NCI-H1755 = tested on: NCI-H1755
Method in brief: as §1

NCI-H1975 = tested on: NCI-H1975
Method in brief: as §1

NCI-H2228 = tested on: NCI-H2228
Method in brief: as §1

NCI-H2405 = tested on: NCI-H2405
Method in brief: as §1

NCI-H322M = tested on: NCI-H322M
Method in brief: as §1

NCI-H520 = tested on: NCI-H520
Method in brief: as §1

NCI-H661 = tested on: NCI-H661
Method in brief: as §1

PC-14 = tested on: PC-14
Method in brief: as §1

PC-3 [JPC-3] = tested on: PC-3 [JPC-3]
Method in brief: as §1

RERF-LC-KJ = tested on: RERF-LC-KJ
Method in brief: as §1

In the case of CCN(CC)CCCCNc1ncc2cc(-c3cc(OC)cc(OC)c3)c(NC(=O)NC(C)(C)C)nc2n1 + CC(C)C[C@H](NC(=O)[C@H](Cc1ccccc1)NC(=O)c1cnccn1)B(O)O [Bortezomib] (partner 0.002 µM), the relative viability (CAL-12T; first compound 0.03162 µM) is reported as 1.02, the relative viability (CAL-12T; first compound 0.1 µM) is reported as 1.03 and the relative viability (CAL-12T; first compound 0.3162 µM) is reported as 1.26. It also gave a relative viability (CAL-12T; first compound 1 µM) of 0.769, a relative viability (EKVX; first compound 0.01 µM) of 1.15 and a relative viability (EKVX; first compound 0.03162 µM) of 0.957. For the same molecule, the relative viability (EKVX; first compound 0.1 µM) was 1.2, the relative viability (EKVX; first compound 0.3162 µM) was 1.21 and the relative viability (EKVX; first compound 1 µM) was 1.1. The relative viability (H3255; first compound 0.01 µM) was 0.762, the relative viability (H3255; first compound 0.03162 µM) was 0.773 and the relative viability (H3255; first compound 0.1 µM) was 1.02. It also gave a relative viability (H3255; first compound 0.3162 µM) of 1.21, a relative viability (H3255; first compound 1 µM) of 0.656 and a relative viability (HCC-15; first compound 0.01 µM) of 1.24. The relative viability (HCC-15; first compound 0.03162 µM) was 1.06, the relative viability (HCC-15; first compound 0.1 µM) was 1.06 and the relative viability (HCC-15; first compound 0.3162 µM) was 1.19. For the same molecule, the relative viability (HCC-15; first compound 1 µM) was 0.936, the relative viability (HCC-827; first compound 0.01 µM) was 1.07 and the relative viability (HCC-827; first compound 0.03162 µM) was 1. For the same molecule, the relative viability (HCC-827; first compound 0.1 µM) was 1.09, the relative viability (HCC-827; first compound 0.3162 µM) was 1.04 and the relative viability (HCC-827; first compound 1 µM) was 1.05. The relative viability (LCLC-97TM1; first compound 0.01 µM) was 0.723, the relative viability (LCLC-97TM1; first compound 0.03162 µM) was 0.614 and the relative viability (LCLC-97TM1; first compound 0.1 µM) was 0.789. For the same molecule, the relative viability (LCLC-97TM1; first compound 0.3162 µM) was 1.54, the relative viability (LCLC-97TM1; first compound 1 µM) was 0.305 and the relative viability (NCI-H1355; first compound 0.01 µM) was 1.23. For the same molecule, the relative viability (NCI-H1355; first compound 0.03162 µM) was 1.25, the relative viability (NCI-H1355; first compound 0.1 µM) was 1.29 and the relative viability (NCI-H1355; first compound 0.3162 µM) was 1.41. The relative viability (NCI-H1355; first compound 1 µM) was 1.13, the relative viability (NCI-H1563; first compound 0.01 µM) was 0.722 and the relative viability (NCI-H1563; first compound 0.03162 µM) was 0.847. The relative viability (NCI-H1563; first compound 0.1 µM) was 0.818, the relative viability (NCI-H1563; first compound 0.3162 µM) was 0.809 and the relative viability (NCI-H1563; first compound 1 µM) was 0.52. It also gave a relative viability (NCI-H1650; first compound 0.01 µM) of 0.201, a relative viability (NCI-H1650; first compound 0.03162 µM) of 0.217 and a relative viability (NCI-H1650; first compound 0.1 µM) of 0.233. The relative viability (NCI-H1650; first compound 0.3162 µM) was 0.203, the relative viability (NCI-H1650; first compound 1 µM) was 0.197 and the relative viability (NCI-H1734; first compound 0.01 µM) was 0.941. It also gave a relative viability (NCI-H1734; first compound 0.03162 µM) of 0.901, a relative viability (NCI-H1734; first compound 0.1 µM) of 1.11 and a relative viability (NCI-H1734; first compound 0.3162 µM) of 1.11. For the same molecule, the relative viability (NCI-H1734; first compound 1 µM) was 0.874, the relative viability (NCI-H1755; first compound 0.01 µM) was 0.977 and the relative viability (NCI-H1755; first compound 0.03162 µM) was 0.992. The relative viability (NCI-H1755; first compound 0.1 µM) was 1.01, the relative viability (NCI-H1755; first compound 0.3162 µM) was 1.07 and the relative viability (NCI-H1755; first compound 1 µM) was 0.936. It also gave a relative viability (NCI-H1975; first compound 0.01 µM) of 0.442, a relative viability (NCI-H1975; first compound 0.03162 µM) of 0.375 and a relative viability (NCI-H1975; first compound 0.1 µM) of 0.394. For the same molecule, the relative viability (NCI-H1975; first compound 0.3162 µM) was 0.451, the relative viability (NCI-H1975; first compound 1 µM) was 0.365 and the relative viability (NCI-H2228; first compound 0.01 µM) was 0.874. It also gave a relative viability (NCI-H2228; first compound 0.03162 µM) of 0.997, a relative viability (NCI-H2228; first compound 0.1 µM) of 1.24 and a relative viability (NCI-H2228; first compound 0.3162 µM) of 1.11. For the same molecule, the relative viability (NCI-H2228; first compound 1 µM) was 1.02, the relative viability (NCI-H2405; first compound 0.01 µM) was 0.973 and the relative viability (NCI-H2405; first compound 0.03162 µM) was 0.866. It also gave a relative viability (NCI-H2405; first compound 0.1 µM) of 1.05, a relative viability (NCI-H2405; first compound 0.3162 µM) of 1.04 and a relative viability (NCI-H2405; first compound 1 µM) of 0.982. For the same molecule, the relative viability (NCI-H322M; first compound 0.01 µM) was 1.29, the relative viability (NCI-H322M; first compound 0.03162 µM) was 1.36 and the relative viability (NCI-H322M; first compound 0.1 µM) was 1.35. It also gave a relative viability (NCI-H322M; first compound 0.3162 µM) of 1.39, a relative viability (NCI-H322M; first compound 1 µM) of 1.08 and a relative viability (NCI-H520; first compound 0.01 µM) of 0.787. The relative viability (NCI-H520; first compound 0.03162 µM) was 0.442, the relative viability (NCI-H520; first compound 0.1 µM) was 0.938 and the relative viability (NCI-H520; first compound 0.3162 µM) was 0.461. For the same molecule, the relative viability (NCI-H520; first compound 1 µM) was 0.244, the relative viability (NCI-H661; first compound 0.01 µM) was 0.892 and the relative viability (NCI-H661; first compound 0.03162 µM) was 0.811. The relative viability (NCI-H661; first compound 0.1 µM) was 0.745, the relative viability (NCI-H661; first compound 0.3162 µM) was 0.922 and the relative viability (NCI-H661; first compound 1 µM) was 0.634. The relative viability (PC-14; first compound 0.01 µM) was 0.894, the relative viability (PC-14; first compound 0.03162 µM) was 0.855 and the relative viability (PC-14; first compound 0.1 µM) was 0.947. For the same molecule, the relative viability (PC-14; first compound 0.3162 µM) was 0.962, the relative viability (PC-14; first compound 1 µM) was 0.843 and the relative viability (PC-3 [JPC-3]; first compound 0.01 µM) was 0.895. The relative viability (PC-3 [JPC-3]; first compound 0.03162 µM) was 0.862, the relative viability (PC-3 [JPC-3]; first compound 0.1 µM) was 0.972 and the relative viability (PC-3 [JPC-3]; first compound 0.3162 µM) was 0.966. It also gave a relative viability (PC-3 [JPC-3]; first compound 1 µM) of 0.939, a relative viability (RERF-LC-KJ; first compound 0.01 µM) of 1.17 and a relative viability (RERF-LC-KJ; first compound 0.03162 µM) of 1.15. The relative viability (RERF-LC-KJ; first compound 0.1 µM) was 1.05, the relative viability (RERF-LC-KJ; first compound 0.3162 µM) was 1.21 and the relative viability (RERF-LC-KJ; first compound 1 µM) was 1.
